Drawing on the supplement of paper PMC10307832, this text covers relative viability for twelve cell lines.

Compound in one assay: O=c1ncccn1[C@@H]1O[C@H](CO)[C@@H](O)[C@H]1O [Zebularine]
Description: relative viability (nuclei count vs DMSO), 5 days (fraction); higher = more cells survive. In short, it runs like this:
(§1)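 Cells of lung cancer lines were placed in 1536-well plates and kept overnight at 37 °C. Pinning then delivered five library-drug doses (not always all listed), spaced by √10, onto plates anchored with vehicle, and the cells were left 5 days without changing medium. One step fixed, permeabilised and stained them with Hoechst, and MetaXpress counted nuclei in 4× images. Viability, as a median over plates, is treated-well nuclei divided by vehicle-well nuclei, with acceptance only at control CV below 25% and at least one doubling.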

Compound in the next assay: CC(C)CCN1c2nc(Nc3cc(F)c(O)c(F)c3)ncc2N(C)C(=O)C1C [BI-D1870]
The assay is described as above. A digest of the protocol: as §1

As for NCI-H2228, the relative viability is 1.17 in the assay with Zebularine (1 µM); 1.08 with Zebularine (3.162 µM); 0.782 with Zebularine (10 µM); 0.8 in the assay with Zebularine (31.62 µM); 0.486 in the assay with Zebularine (100 µM); 0.999 with BI-D1870 (0.04 µM). Besides, the relative viability was found to be 0.82 in the assay with BI-D1870 (0.1265 µM), 0.845 with BI-D1870 (0.4 µM), 1.21 in the assay with BI-D1870 (1.265 µM) and 0.702 with BI-D1870 (4 µM).

In the case of NCI-H2342, the relative viability in the assay with Zebularine (1 µM) stood at 1.01; with Zebularine (3.162 µM), 0.953; with Zebularine (10 µM), 0.757; in the assay with Zebularine (31.62 µM) it was 0.984; in the assay with Zebularine (100 µM), 0.853; in the assay with BI-D1870 (0.04 µM), 0.983. Moreover, the relative viability came to 0.919 with BI-D1870 (0.1265 µM), 1 in the assay with BI-D1870 (0.4 µM), 1.09 with BI-D1870 (1.265 µM) and 1.15 in the assay with BI-D1870 (4 µM).

As to NCI-H2347, the relative viability with Zebularine (1 µM) is 1.11; with Zebularine (3.162 µM), 1.05; with Zebularine (10 µM), 0.753; in the assay with Zebularine (31.62 µM), 0.583; with Zebularine (100 µM) it was 0.489; with BI-D1870 (0.04 µM), 1.14. For the same cell line, the relative viability came out at 1.02 with BI-D1870 (0.1265 µM), 0.964 in the assay with BI-D1870 (0.4 µM), 1.06 with BI-D1870 (1.265 µM) and 0.894 with BI-D1870 (4 µM).

With NCI-H2405, the relative viability with Zebularine (1 µM) was determined as 1.02; with Zebularine (3.162 µM), 0.992; with Zebularine (10 µM) it was 0.871; with Zebularine (31.62 µM), 0.968; with Zebularine (100 µM), 0.726; in the assay with BI-D1870 (0.04 µM), 1.07. The relative viability stood at 0.985 with BI-D1870 (0.1265 µM), 1.03 in the assay with BI-D1870 (0.4 µM), 1.07 with BI-D1870 (1.265 µM) and 0.909 with BI-D1870 (4 µM).

Consider NCI-H3122, for which the relative viability in the assay with Zebularine (1 µM) worked out at 1.03; with Zebularine (3.162 µM), 0.987; with Zebularine (10 µM), 0.875; in the assay with Zebularine (31.62 µM), 1.01; with Zebularine (100 µM), 1.04; with BI-D1870 (0.04 µM) it was 1.03. Also, the relative viability is 0.927 in the assay with BI-D1870 (0.1265 µM), 0.951 in the assay with BI-D1870 (0.4 µM), 1.02 with BI-D1870 (1.265 µM) and 0.903 with BI-D1870 (4 µM).

In the case of PC-3 [JPC-3], the relative viability with Zebularine (1 µM) turned out to be 1.07; with Zebularine (3.162 µM), 1.01; in the assay with Zebularine (10 µM) it was 0.711; in the assay with Zebularine (31.62 µM) it was 0.868; with Zebularine (100 µM) it was 0.76; with BI-D1870 (0.04 µM) it was 1.05. For the same cell line, the relative viability amounted to 1.02 in the assay with BI-D1870 (0.1265 µM), 0.962 in the assay with BI-D1870 (0.4 µM), 1.1 with BI-D1870 (1.265 µM) and 0.951 with BI-D1870 (4 µM).

Turning to PC-14, the relative viability with Zebularine (1 µM) turned out to be 1.18; in the assay with Zebularine (3.162 µM) it was 0.694; with Zebularine (10 µM) it was 0.19; with Zebularine (31.62 µM) it was 0.138; in the assay with Zebularine (100 µM), 0.109; with BI-D1870 (0.04 µM), 1.09. Moreover, the relative viability in the assay with BI-D1870 (0.1265 µM) turned out to be 0.943; in the assay with BI-D1870 (0.4 µM) it was 0.97; with BI-D1870 (1.265 µM) it was 1.08; with BI-D1870 (4 µM), 0.767.

For RERF-LC-KJ, the relative viability in the assay with Zebularine (1 µM) turned out to be 1.11; in the assay with Zebularine (3.162 µM), 1.03; in the assay with Zebularine (10 µM), 0.859; in the assay with Zebularine (31.62 µM) it was 1.01; with Zebularine (100 µM), 0.994; in the assay with BI-D1870 (0.04 µM) it was 1.01. Further, the relative viability came to 0.908 with BI-D1870 (0.1265 µM), 0.954 with BI-D1870 (0.4 µM), 1.02 with BI-D1870 (1.265 µM) and 0.814 with BI-D1870 (4 µM).

Regarding SK-LU-1, the relative viability in the assay with Zebularine (1 µM) is 1.07; with Zebularine (3.162 µM) it was 0.989; with Zebularine (10 µM), 0.626; with Zebularine (31.62 µM) it was 0.739; with Zebularine (100 µM) it was 0.544; in the assay with BI-D1870 (0.04 µM), 1.07. Besides, the relative viability with BI-D1870 (0.1265 µM) was determined as 0.91; with BI-D1870 (0.4 µM) it was 0.972; in the assay with BI-D1870 (1.265 µM) it was 0.997; with BI-D1870 (4 µM), 0.669.

As to SK-MES-1, the relative viability is 1.11 with Zebularine (1 µM); 1.06 in the assay with Zebularine (3.162 µM); 0.704 in the assay with Zebularine (10 µM); 0.673 with Zebularine (31.62 µM); 0.286 in the assay with Zebularine (100 µM); 1.05 with BI-D1870 (0.04 µM). The relative viability with BI-D1870 (0.1265 µM) was 0.911; with BI-D1870 (0.4 µM), 0.892; with BI-D1870 (1.265 µM), 0.829; with BI-D1870 (4 µM), 0.617.

SW 900: the relative viability with Zebularine (1 µM) came out at 1.04; with Zebularine (3.162 µM), 0.839; with Zebularine (10 µM), 0.661; with Zebularine (31.62 µM), 0.843; with Zebularine (100 µM), 0.651; with BI-D1870 (0.04 µM), 1.03. In addition, the relative viability with BI-D1870 (0.1265 µM) is 0.95; with BI-D1870 (0.4 µM), 0.864; with BI-D1870 (1.265 µM), 1.02; in the assay with BI-D1870 (4 µM), 0.894.

For SW 1573, the relative viability was found to be 1.04 in the assay with Zebularine (1 µM); 0.897 in the assay with Zebularine (3.162 µM); 0.721 with Zebularine (10 µM); 1.01 in the assay with Zebularine (31.62 µM); 0.77 with Zebularine (100 µM); 1.14 in the assay with BI-D1870 (0.04 µM). For the same cell line, the relative viability with BI-D1870 (0.1265 µM) was found to be 0.896; with BI-D1870 (0.4 µM) it was 0.968; with BI-D1870 (1.265 µM) it was 0.857; with BI-D1870 (4 µM) it was 0.61.
